According to patent publication US5750712A, “2-(n-cyanoimino)-thiazolidin-4-one derivatives” (priority 1994, dated 1998):
Counter-ions that a name gives are not always drawn.

Target: aldose reducing enzyme (Homo sapiens, UniProt P15121)
Assay: Aldose reducing enzyme inhibiting activity (method of Hayman et al.)
Assay type: biochemical, Recombinant
Conditions: 1.0×10^-7 mol concentration level of the tested compound; human recombinant enzyme; read-out: Inhibition rate (%)

| SMILES | inhibition at 0.1 µM [%] |
| --- | --- |
| CC(=Cc1ccccc1)C=C1SC(=NC#N)N(CC(=O)O)C1=O [Example 2, 2-(N-cyanoimino)-5-(2-methyl-3-phenylpropenylidene)-4-oxo-3-thiazolidine acetic acid] | 100 |
| CC(=Cc1ccccc1)C=C1SC(=NC#N)N(C)C1=O [Example 3, 2-(N-cyanoimino)-3-methyl-5-(2-methyl-3-phenylpropenylidene) thiazolidin-4-one] | 12 |
| N#CN=C1NC(=O)C(=Cc2ccc3c(c2)OCO3)S1 [Example 4, 2-(N-cyanoimino)-5-(3,4-methylenedioxybenzylidene) thiazolidin-4-one] | 44 |
| COc1ccc2cc(C=C3SC(=NC#N)NC3=O)ccc2c1 [Example 8, 2-(N-cyanoimino)-5-[2-(6-methoxynaphthyl)methylene]thiazolidin-4-one] | 68 |
| COc1cc(C=C2SC(=NC#N)NC2=O)ccc1O [Example 10, 2-(N-cyanoimino)-5-(4-hydroxy-3-methoxybenzylidene) thiazolidin-4-one] | 100 |
| CCC(=C1SC(=NC#N)NC1=O)c1ccccc1 [Example 14, 2-(N-cyanoimino)-5-(1-phenylpropylidene) thiazolidin-4-one] | 12 |
| CC(=C1SC(=NC#N)NC1=O)c1ccc2ccccc2c1 [Example 15, 2-(N-cyanoimino)-5-[1-(2-naphthyl)ethylidene] thiazolidin-4-one] | 64 |

The next lines start with the values.

| inhibition at 0.1 µM [%] | SMILES |
| --- | --- |
| 72 | CC(=Cc1ccccc1)C=C1SC(=NC#N)NC1=O [Example 1, 2-(N-cyanoimino)-5-(2-methyl-3-phenylpropenylidene) thiazolidin-4-one] |
| 44 | N#CN=C1NC(=O)C(=Cc2ccc3ccccc3c2)S1 [Example 5, 2-(N-cyanoimino)-5-(2-naphthylmethylene) thiazolidin-4-one] |
| 32 | N#CN=C1NC(=O)C(=Cc2ccccc2)S1 [Example 6, 5-benzylidene-2-(N-cyanoimino)-4-oxythiazolidine] |
| 44 | N#CN=C1NC(=O)C(=CC=Cc2ccccc2)S1 [Example 7, 2-(N-cyanoimino)-5-(3-phenylpropenylidene) thiazolidin-4-one] |
| 20 | N#CN=C1NC(=O)C(=Cc2cccc3ccccc23)S1 [Example 9, 2-(N-cyanoimino)-5-(1-naphthylmethylene) thiazolidin-4-one] |
| 52 | Cc1cccc(C=C2SC(=NC#N)NC2=O)c1 [Example 11, 2-(N-cyanoimino)-5-(3-methylbenzylidene) thiazolidin-4-one] |
| 84 | COc1ccccc1C=CC=C1SC(=NC#N)NC1=O [Example 12, 2-(N-cyanoimino)-5-[3-(2-methoxyphenyl)propenylidene] thiazolidin-4-one] |

Same assay, conditions: read-out: Inhibition rate (%)

| SMILES | inhibition at 0.1 µM [%] |
| --- | --- |
| CC(=C1SC(=NC#N)NC1=O)c1ccccc1 [Example 13, 2-(N-cyanoimino)-5-(1-phenylethylidene) thiazolidin-4-one potassium salt] | 60 |

System: 5-lipoxygenase
Assay: not given
Conditions: in words, prior-art compound; cited from earlier work

| SMILES | 5-lipoxygenase inhibiting action |
| --- | --- |
| CC(C)(C)c1cc(C=C2SC(=NC#N)NC2=O)cc(C(C)(C)C)c1O | 5-lipoxygenase and cycloxygenase inhibiting actions |

System: cycloxygenase
Assay: not given
Conditions: in words, prior-art compound; cited from earlier work

| SMILES | cycloxygenase inhibiting action |
| --- | --- |
| CC(C)(C)c1cc(C=C2SC(=NC#N)NC2=O)cc(C(C)(C)C)c1O | 5-lipoxygenase and cycloxygenase inhibiting actions |

System: aldose reducing enzyme
Assay: not given
Conditions: in words, prior-art compound; cited from earlier work

| SMILES | aldose reducing enzyme inhibiting action |
| --- | --- |
| CC(C)(C)c1cc(C=C2SC(=NC#N)NC2=O)cc(C(C)(C)C)c1O | no aldose reducing enzyme inhibiting action |
